The values below come from a melting point compilation (Tetko et al.; mined from patent text by program, amines drawn as free bases though some values may be those of a salt).

With `N#CC(C#N)=C1N(CCCN2CCc3ccccc3C2)CCN1CCN1CCCCC1`, the melting point – broadly, the temperature, or range, at which the solid turns liquid – was 79 to 81 °C.

Turning to `COCOCC(=O)c1cnc(NC(=O)C(C)(C)C)cn1`, the melting point lay in the range of 141 to 142 °C.

`CCCC1(CCC)c2ccccc2-c2ccc(O)cc21` displayed a melting point of 116 to 117 °C.

With `NS(=O)(=O)c1cc2cc(CCOCc3ccccc3)ccc2s1`, the melting point is 136 to 138 °C.

As for `CC1=C(/C=C/C(C)=C/C=C/C(C)=C/C(=O)OCOC(=O)Oc2ccc([N+](=O)[O-])cc2)C(C)(C)CCC1`, the melting point is 35 to 36 °C.

For `O=[N+]([O-])c1ccc(Cl)cc1Sc1cccc2cnccc12`, the melting point lay in the range of 151 to 153 °C.

As to `O=C(N[C@H](Cc1ccc(C(F)(F)F)cc1)[C@@H](O)c1ccc(F)cc1)c1ccc(F)c2ccccc12` (racemic), the melting point was 210 to 211 °C.

For the compound `COc1ccc(C2=NNC(=O)[C@H]3CCCC[C@@H]23)cc1OC` (relative stereo), the melting point was in the range of 143 to 146 °C.

`CNc1nc(N)nc(-c2cc(Cl)ccc2Cl)n1` showed a melting point of 205 to 206 °C.

`CCCCCC1CCc2c(c(F)c(F)c3oc(C4CCC(CCC)CC4)cc23)O1` (stereo not given) displayed a melting point of 101 °C.

`O=C1c2ccccc2C(=O)N1CCc1ccc(C(F)(F)F)cc1` had a melting point of 134 to 135 °C.

Regarding `Cc1ccc(-c2c(C(=O)Nc3nccs3)nc(-c3cccc4ccccc34)n2CCN2CCOCC2)cc1`, the melting point fell in the range of 226 to 227 °C.

`CCOC(=O)COC(=O)CN1CCCCCC1=O` yielded a melting point of 33.5 to 35 °C.

On to `CCOC(=O)C(NC(=O)OCc1ccccc1)OCC` (stereo not given), for which the melting point lay within 66 to 68 °C.

As for `CC(O)=C(C#N)C(=O)Nc1ccc(C(C)(C)C)cc1`, the melting point was in the range of 134 to 135 °C.

`CC1(C)COP(=O)(OC(C#N)c2cccc(Oc3ccccc3)c2)OC1` (stereo not given): the melting point came to 140 °C.

The compound `Cc1c(NC(=O)c2ccc(-c3ccc(OC(F)(F)F)cc3)cc2F)ccc2cc(CN3CCCC3)cnc12` gave a melting point of 175 to 178 °C.

`COc1ccc(C=Cc2ccc(CO)cc2)cc1` displayed a melting point of 200 to 202 °C.

As to `O=C(NC1CCN(C2CCCCC2)C1)c1cccc2ccccc12` (stereo not given), the melting point lay in the range of 119 to 120 °C.

`CCN1CCN(CCCN2CC[C@H](NC(=O)c3cc(Cl)c(N)cc3OC)[C@H](OC)C2)C1=O` (relative stereo) showed a melting point of 113 °C.

Consider `CCOC(=O)N(O)Cc1cccc(Nc2ccccc2C(=O)OC)c1Cl`, for which the melting point was 108 to 110 °C.

For `CCOC(=O)c1sc(-c2cccn2C)nc1-c1ccccc1`, the melting point is 86 to 89 °C.

`CCCc1nn(C)c2c(=O)n(CCOc3ccc(NC(C)C(=O)OCC)cc3)c(CC)nc12` (stereo not given) registered a melting point of 100 to 104 °C.

In turn, `CCOC(Oc1cc(Cl)cc(Cl)c1)C(=O)O` (stereo not given) showed a melting point of 83.5 to 86.5 °C.

In turn, `Cc1cc(CO)cc(Oc2nc(Cl)nc(Cl)c2C(C)C)c1` yielded a melting point of 140 to 141 °C.

For `CC(C)n1nc(-c2c(-c3ccccc3)nn3ccc(OCC(=O)N(C)C)cc23)ccc1=O`, the melting point fell in the range of 189 to 190 °C.

In the case of `N#Cc1cc(C(F)(F)F)nn1-c1ccc(NC(=O)c2cccnc2F)cc1`, the melting point was 150 to 151 °C.

The compound `CN(CCN1CCC(=C(c2ccccc2)c2ccccc2)CC1)c1ncccn1` registered a melting point of 98 to 100 °C.

With `Cc1ccn(Cc2ccc(Cl)c(Cl)c2)c(=O)c1C(=O)O`, the melting point lay within 219 to 221 °C.

With `ClCCCn1ncc2cc(OCc3ccccc3)ccc21`, the melting point was in the range of 65 to 66 °C.

As to `Nc1sc2c(c1Cc1cccs1)CCN(Cc1ccccc1)C2`, the melting point lay within 122 to 123 °C.

For the compound `O=C(Nc1c(Cl)cncc1Cl)c1ccc(OC(F)F)c2oc3ccccc3c12`, the melting point is 270 °C.

The compound `Cc1ccc(CC2(OCc3ccccc3)CCN(CC3Cc4cc(O)ccc4C3O)CC2)cc1` (stereo not given) came in with a melting point of 131 to 132 °C.

In turn, `COC(=O)NC1(C)CN(C(=O)Nc2ccc(C(F)(F)F)cc2)N=C1c1ccc(Cl)cc1` (stereo not given) returned a melting point of 179 to 181 °C.

In turn, `Nc1nc(-c2ccccc2)c(C(O)CO)c2ncnn12` (stereo not given) had a melting point of 199 to 200 °C.

In the case of `Oc1cccc2nc(Cc3ccccc3)[nH]c12`, the melting point is 172 to 174 °C.

Take `OC1c2ccccc2CSc2ccc(Br)cc21` (stereo not given): the melting point was 169 to 170 °C.

For `C#CCOC(=O)C1=C(C)N2CCNC2=C(C(=O)OCC)C1c1cccc([N+](=O)[O-])c1` (stereo not given), the melting point worked out at 153 °C.

`O=c1ccc2cnc(Nc3ccccc3)nc2n1-c1ccccc1` registered a melting point of 300 to 302 °C.

Turning to `CCCO[C@@H](C)C(=O)Oc1ccc(-c2ccc(O)cc2)cc1`, the melting point was determined as 120 °C.

On to `NNC(=O)C[C@H](O)c1ccccc1`, for which the melting point is 180 °C.

Take `NS(=O)(=O)c1ccc(OCCOc2ccc(C(=O)C(=O)O)cc2)cc1`: the melting point is 178 to 179 °C.

In the case of `CCCCCCOCCCCCCCCCCCSCCCO`, the melting point was in the range of 27 to 29 °C.

In turn, `O=C(O)CCCN1CCc2ccc(S(=O)(=O)Nc3ccc(Cl)cc3)cc2C1` gave a melting point of 210 °C.

For `CCOC(=O)c1nc(-c2ccncc2)[nH]c1-c1ccc(C)cc1`, the melting point lay within 182 to 185 °C.

`Cc1cc(=O)n(CCBr)o1`: the melting point was in the range of 39 to 40 °C.

Compound `O=C(N[C@@H]1CONC1=O)OCc1ccccc1` had a melting point of 135 to 136 °C.

For `CC(C)c1cc(N)c(S(N)(=O)=O)cc1S(N)(=O)=O`, the melting point lay within 185 to 186 °C.

In the case of `N#CNC(=NCCc1ccccc1Cl)c1cncc(NC(=O)c2ccccc2)c1`, the melting point turned out to be 220 °C.

Regarding `CC(C)OC(=O)Nc1cccc(-c2ccnc3c(C(=O)c4ccsc4)cnn23)c1`, the melting point fell in the range of 122 to 124 °C.

`O=C(NCc1cccnc1)c1ccnc(N2CCN(Cc3ccc(F)cc3)C2=O)c1` had a melting point of 153 to 155 °C.

On to `O=c1[nH]c2cccnc2n1-c1ccc2c(c1)OCO2`, for which the melting point lay in the range of 256 to 258 °C.

In the case of `COc1c(Cl)cc(CNc2ccccc2[N+](=O)[O-])cc1Cl`, the melting point was determined as 128 °C.

The compound `CCNC(=O)c1cc(NCn2nnc3ccccc32)ccc1[Si](C)(C)C` gave a melting point of 207 to 208 °C.

Take `Nc1ncccc1-c1nc2ccc(-c3cccnc3)nc2n1-c1ccc(CC(=O)Nc2ccccc2)cc1`: the melting point was in the range of 162 to 164 °C.

On to `CCN(CC)c1ccc(CN2CCC(NC(=O)Nc3ccccc3CCc3cc(C(C)(C)C)c(O)c(C(C)(C)C)c3)CC2)cc1`, for which the melting point was in the range of 138 to 141 °C.

Take `CCCCCN(CCC12CC3CC(CC(C3)C1)C2)C(=O)NCC(Cc1ccccc1)Cc1ccncc1` (stereo not given): the melting point lay in the range of 111 to 116 °C.

Regarding `COc1ccc(C[C@](C)(N[C@@H](C(N)=O)c2ccccc2)C(N)=O)cc1`, the melting point was in the range of 106 to 108 °C.

The compound `O=C(O)c1cc2c3c(c1)CCCC3CCC2` had a melting point of 208 to 209 °C.

On to `Cc1oc(-c2ccccc2)nc1CCOc1ccc([N+](=O)[O-])cn1`, for which the melting point lay in the range of 110 to 112 °C.

With `COc1cc2c(cc1OC)-c1c(C(N)=O)c(-c3cc(C)c(O)c(C)c3)c(C)n1CC2`, the melting point lay within 229 to 231 °C.

The compound `CCC1N=C(c2ccccc2Cl)c2cc(CCC(=O)OC)sc2NC1=O` (stereo not given) came in with a melting point of 187 to 189 °C.

In the case of `Cc1cccc2c1N(CC(=O)C1CC1)C(=O)C(NC(=O)Nc1cccc(-c3nnn[nH]3)c1)N=C2C1CCCCC1` (stereo not given), the melting point lay within 227 to 233 °C.

Consider `O=S(=O)(Cc1n[nH]c(-c2ccco2)n1)c1ccccc1`, for which the melting point was in the range of 185 to 186 °C.

The compound `CC1CC(C)(C)C(O)(CO)C1Cc1ccc(Cl)cc1` (stereo not given) had a melting point of 93 to 94 °C.

As for `CC(C)n1cc(C2CCC3(CC2)OCCO3)c2cc(C#N)ccc21`, the melting point lay in the range of 114 to 116 °C.

`COc1ccc(Nc2nc(Nc3cc4c(cc3OC)CCN(CC(=O)N(C)C)CC4)ncc2Cl)c(S(=O)(=O)C(C)C)c1` registered a melting point of 68 to 79 °C.

In turn, `Cc1ccc(C(=O)C2=C(O)C(=O)N(c3ccc(C)nn3)C2c2ccc(OC(C)C)cc2)cc1` (stereo not given) displayed a melting point of 268 to 272 °C.

`O=C(CCCCOc1ccc(-c2ccc(F)cc2)cc1)NO` displayed a melting point of 160 to 162 °C.

`OCC1OC(n2cnc3c(NC4CCCCC4)nc(Cl)nc32)CC1O` (stereo not given) had a melting point of 160 to 162 °C.

In the case of `Cc1cc(-c2nnnn2C2CC2)ccc1N`, the melting point was 139 to 140 °C.

In turn, `CCC(CN1C(=O)c2ccccc2C1=O)N1CCC(c2noc3cc(F)ccc23)CC1` (stereo not given) came in with a melting point of 86 to 88 °C.

As for `NC(=O)c1cn(Cc2c(F)cccc2F)nn1`, the melting point fell in the range of 237 to 240 °C.

In turn, `CCOc1ccc([N+](=O)[O-])c(NN2CCN(C)CC2)c1` had a melting point of 145 °C.

Compound `CC(Br)=C(Br)CC(O)(Cn1cncn1)C1(Cl)CC1` (stereo not given) registered a melting point of 55 to 56 °C.

Compound `COc1ccc(Br)c2c1CN(Nc1ccncc1)CC2` returned a melting point of 172 to 173 °C.

Compound `CCOC(=O)C1CCNCC1c1nc2cc(-c3ccc(OC)cc3)nnc2c2ccccc12` (stereo not given) came in with a melting point of 160 to 161 °C.

Take `Cc1cc(Cl)ccc1OC(Cn1cncn1)C(=O)C(C)(C)C` (stereo not given): the melting point fell in the range of 63 to 65 °C.

In the case of `CCCOc1cc(-c2ccc3cc4c(cc3c2)C(C)(C)CCC4(C)C)ccc1C(=O)O`, the melting point is 137 to 138 °C.

For `Nc1nc(-c2cn([C@H](CO)CCc3ccccc3)cn2)n[nH]1`, the melting point stood at 80 °C.

Take `CCn1c(=O)oc(=O)c2ccccc21`: the melting point was 110 to 112 °C.

Regarding `O=C(CCN1CCN(Cc2ccccc2)CC1)c1ccc2[nH]c(=O)oc2c1`, the melting point was > 300 °C.

`CCCC(=O)NC(C#N)C(=O)OCC` (stereo not given) had a melting point of 110 °C.

In the case of `CC(C)(C#N)Cc1cccc(CC(C)(C)C#N)c1`, the melting point was in the range of 58 to 63 °C.

For the compound `CC(C)OC(=O)C=CC1C(C(=O)O)C1(C)C` (stereo not given), the melting point stood at 98 °C.

`CC1=NN(c2c(Cl)cc(Cl)cc2Cl)C(=O)C1` came in with a melting point of 178 to 180 °C.

Regarding `Cc1cccn2c(C)c(-c3ccc4c(c3)NC(=O)C(C)O4)nc12` (stereo not given), the melting point was 249 to 250 °C.

Regarding `CCOC(=O)C(=O)NNc1ccc([N+](=O)[O-])cc1`, the melting point was in the range of 187 to 188 °C.

Turning to `COCOc1ccc(Nc2ncccc2[N+](=O)[O-])cc1`, the melting point lay within 80 to 81 °C.

`NC1CCc2ccccc2NC1=O` (stereo not given) registered a melting point of 161 to 162 °C.
